Reference: the NIST ThermoML archive (doi:10.1021/je100081v)
Numbers after ± are expanded uncertainties.

Settings: Liquid

| Compound | vapor or sublimation pressure (509.95 K) [kPa] | vapor or sublimation pressure (469.15 K) [kPa] |
| --- | --- | --- |
| O=CN1CCOCC1 [N-formylmorpholine] | 101.32 ± 0.2 | – |
| OCCO [1,2-ethanediol] | – | 101.32 ± 0.19 |
